Patent US20240041971A1, “A PROCESS OF PREPARATION OF FLOUR MIX AND ITS USE FOR THE TREATMENT OF DIABETES” (priority 2020, published 2024)

Key:
Type in all cases: in vivo, Rats
[1] = test system: Streptozotocin-nicotinamide induced Type-2 diabetes (T2DM); assay: Streptozotocin-nicotinamide induced Type-2 diabetes: plasma glucose; settings: 5 mg/kg oral gavage
Protocol: (§1) The objective of the study is to evaluate pharmaceutical preparation in Type-2 diabetes mellitus (T2DM) and to compare efficacy of these in comparison to standard hypoglycemic agent pioglitazone.
(§2) Experimental model: Streptozotocin-nicotinamide induced Type-2 diabetes (T2DM): Single intraperitoneal injection of nicotinamide and streptozotocin was administered. Dose: STZ (45 mg/kg for rats)+Nicotinamide (230 mg/kg for rats) for T2DM pharmaceutical preparation (45.90 & 180 mg/kg). Route: STZ & Nicotinamide were administered intraperitoneally (i.p.). Pharmaceutical preparation & pioglitazone were administered per orally (oral gavage). Volume Administered: Rat—5 mL/kg Animals: Rats of Wistar strain weighing from 150-200 g of either sex used for the study. The animals were housed under optimal laboratory conditions, maintained on a natural (12 h) light and (12 h) dark cycle and had free access to food and water ad libitum. Animals were acclimatized to laboratory conditions before the tests. Study Design: Animals were divided into 6 groups of 5-8 animals in each group: • a) Group I: Control or vehicle treated group • b) Group II: Type 2 diabetic group • c) Group III: Diabetic animals+pharmaceutical preparation (45 mg/kg) • d) Group IV: Diabetic animals+pharmaceutical preparation (90 mg/kg) • e) Group V: Diabetic animals +pharmaceutical preparation (180 mg/kg) • f) Group VI: Diabetic animals+Pioglitazone (5 mg/kg)
(§3) Pharmaceutical preparation was administered after confirmation of diabetes for 28 days.
Parameters to be evaluated: The […]) Body weight, water and food intake was monitored. • b) Blood Glucose Level: Glucose was estimated using diagnostic kits by GOD-POD method and the experiment was conducted following the manufacturer's instructions. • c) Estimation of Glycosylated Haemoglobin (HbA1c): HbA1c is a good indicator of protein glycosylation. Excess of glucose conjugates with proteins to form glycosylated moieties. It was estimated by ion-resin method using commercial kits.

[2] = test system: Streptozotocin-nicotinamide induced Type-2 diabetes (T2DM); assay: Streptozotocin-nicotinamide induced Type-2 diabetes: Glycosylated Haemoglobin (HbA1c); settings: 5 mg/kg oral gavage
Protocol: as §1, §2, §3
Parameters to be evaluated: The following parameters were evaluated after confirmation of diabetes on day 1, 7, 14, 21 and 28 days. • a) Body weight, water and food intake was monitored. • b) Blood Glucose Level: Glucose was estimated using diagnostic kits by GOD-POD method and the experiment was conducted following the manufacturer's instructions. • c) Estimation of Glycosylated Haemoglobin (HbA1c): HbA1c is a good indicator of protein glycosylation. Excess of glucose conjugates with proteins to form glycosylated moieties. It was estimated by ion-resin method using commercial kits.

[3] = test system: Streptozotocin (STZ) induced type 1 diabetes (T1DM); assay: Oral Glucose Tolerance Test (OGTT) in STZ induced type 1 diabetes; settings: 10 IU/kg subcutaneous
Protocol: The objective of the study is to evaluate the pharmaceutical preparation in Type-1 Diabetes Mellitus (T1DM) and to compare the efficacy in comparison to standard hypoglycemic agents as insulin. Experimental model: Streptozotocin (STZ) induced type 1 diabetes (T1DM). Dose: STZ (45 mg/kg for rats) for T1DM Route: STZ was administered intraperitoneally (i.p.). Pharmaceutical preparation was administered peroral (p.o.) in three doses. Animals: Rats of Wistar or Sprague Dawley strain weighing from 150-200 g of either sex. The animals were housed under optimal laboratory conditions, maintained on a natural (12 h) light and (12 h) dark cycle and have free access to food and water ad libitum. Animals were acclimatized to laboratory conditions before the tests. Study Design: Animals were divided into 8 groups of 10 animals in each group. • a) Group I: Control or vehicle treated group • b) Group II: Type 1 diabetic group • c) Group III: pharmaceutical preparation (90 mg/kg)+Diabetic animals • d) Group IV: pharmaceutical preparation (180 mg/kg)+Diabetic animals • e) Group V: pharmaceutical preparation (360 mg/kg)+Diabetic animals • f) Group VI: Satcol (60 mg/kg)+Diabetic animals • g) Group VII: pharmaceutical preparation (90 mg/kg)+Insulin (10IU)+Diabetic animals • h) Group VIII: Insulin (10IU)+Diabetic animals Drugs were administered for 28 days after confirmation of diabetes. Parameters to be evaluated: The following parameters were evaluated at confirmation of diabetes and after 28 days of treatment. • a) Body weight, water and food intake was monitored weekly. • b) Blood Glucose Level: Glucose was estimated using diagnostic kits by GOD-POD method and the experiment was conducted following the manufacturer's instructions. • c) Oral Glucose Tolerance Test (OGTT): An oral glucose tolerance test was carried out in conscious rats. For this the rats was fasted overnight and glucose (2 g/kg b.w.) was given from 30% solution by oral gavage. […] for glucose. • d) Measurement of Plasma Insulin Level: Insulin was estimated using insulin ELISA kit (LINCO) and the experiment was conducted following the manufacturer's instructions. It is a solid phase sandwich enzyme-linked immunosorbent assay (ELISA), which uses a microtitre plate reader at 450 nm. Concentrations of insulin were calculated from plotted standard curves. All results were expressed as Mean±SEM. The intergroup variation was measured by one-way analysis of variance (ANOVA) followed by Tukey's test. Statistical significance was considered at P<0.05. The statistical analysis was done using the SPSS Statistical Software version 16 (SPSS Inc. 233 South Wacker Drive, 11th Floor Chicago, IL 60606-6412).

[4] = test system: Streptozotocin (STZ) induced type 1 diabetes (T1DM); assay: Plasma insulin level (ELISA) in STZ induced type 1 diabetes; settings: 10 IU/kg subcutaneous
Protocol: The objective of the study is to evaluate the pharmaceutical preparation in Type-1 Diabetes Mellitus (T1DM) and to compare the efficacy in comparison to standard hypoglycemic agents as insulin. Experimental model: Streptozotocin (STZ) induced type 1 diabetes (T1DM). Dose: STZ (45 mg/kg for rats) for T1DM Route: STZ was administered intraperitoneally (i.p.). Pharmaceutical preparation was administered peroral (p.o.) in three doses. Animals: Rats of Wistar or Sprague Dawley strain weighing from 150-200 g of either sex. The animals were housed under optimal laboratory conditions, maintained on a natural (12 h) light and (12 h) dark cycle and have free access to food and water ad libitum. Animals were acclimatized to laboratory conditions before the tests. Study Design: Animals were divided into 8 groups of 10 animals in each group. • a) Group I: Control or vehicle treated group • b) Group II: Type 1 diabetic group • c) Group III: pharmaceutical preparation (90 mg/kg)+Diabetic animals • d) Group IV: pharmaceutical preparation (180 mg/kg)+Diabetic animals • e) Group V: pharmaceutical preparation (360 mg/kg)+Diabetic animals • f) Group VI: Satcol (60 mg/kg)+Diabetic animals • g) Group VII: pharmaceutical preparation (90 mg/kg)+Insulin (10IU)+Diabetic animals • h) Group VIII: Insulin (10IU)+Diabetic animals Drugs were administered for 28 days after confirmation of diabetes. Parameters to be evaluated: […]) Body weight, water and food intake was monitored weekly. • b) Blood Glucose Level: Glucose was estimated using diagnostic kits by GOD-POD method and the experiment was conducted following the manufacturer's instructions. • c) Oral Glucose Tolerance Test (OGTT): An oral glucose tolerance test was carried out in conscious rats. For this the rats was fasted overnight and glucose (2 g/kg b.w.) was given from 30% solution by oral gavage. Tail blood samples was collected before glucose load and sequentially for every half an hour after glucose load upto 90 minutes and was immediately analysed for glucose. • d) Measurement of Plasma Insulin Level: Insulin was estimated using insulin ELISA kit (LINCO) and the experiment was conducted following the manufacturer's instructions. It is a solid phase sandwich enzyme-linked immunosorbent assay (ELISA), which uses a microtitre plate reader at 450 nm. Concentrations of insulin were calculated from plotted standard curves. All results were expressed as Mean±SEM. The intergroup variation was measured by one-way analysis of variance (ANOVA) followed by Tukey's test. Statistical significance was considered at P<0.05. The statistical analysis was done using the SPSS Statistical Software version 16 (SPSS Inc. 233 South Wacker Drive, 11th Floor Chicago, IL 60606-6412).

[5] = test system: Streptozotocin (STZ) induced type 1 diabetes (T1DM); assay: Streptozotocin (STZ) induced type 1 diabetes: plasma glucose, body weight, food intake, water intake, urine output; settings: 10 IU/kg subcutaneous
Protocol: The objective of the study is to evaluate the pharmaceutical preparation in Type-1 Diabetes Mellitus (T1DM) and to compare the efficacy in comparison to standard hypoglycemic agents as insulin. Experimental model: Streptozotocin (STZ) induced type 1 diabetes (T1DM). Dose: STZ (45 mg/kg for rats) for T1DM Route: STZ was administered intraperitoneally (i.p.). Pharmaceutical preparation was administered peroral (p.o.) in three doses. Volume Administered: Rat—5 ml/kg Animals: Rats of Wistar or Sprague Dawley strain weighing from 150-200 g of either sex. The animals were housed under optimal laboratory conditions, maintained on a natural (12 h) light and (12 h) dark cycle and have free access to food and water ad libitum. Animals were acclimatized to laboratory conditions before the tests. […] Parameters to be evaluated: The following parameters were evaluated at confirmation of diabetes and after 28 days of treatment. • a) Body weight, water and food intake was monitored weekly. • b) Blood Glucose Level: Glucose was estimated using diagnostic kits by GOD-POD method and the experiment was conducted following the manufacturer's instructions. • c) Oral Glucose Tolerance Test (OGTT): An oral glucose tolerance test was carried out in conscious rats. For this the rats was fasted overnight and glucose (2 g/kg b.w.) was given from 30% solution by oral gavage. Tail blood samples was collected before glucose load and sequentially for every half an hour after glucose load upto 90 minutes and was immediately analysed for glucose. • d) Measurement of Plasma Insulin Level: Insulin was estimated using insulin ELISA kit (LINCO) and the experiment was conducted following the manufacturer's instructions. It is a solid phase sandwich enzyme-linked immunosorbent assay (ELISA), which uses a microtitre plate reader at 450 nm. Concentrations of insulin were calculated from plotted standard curves. All results were expressed as Mean±SEM. The intergroup variation was measured by one-way analysis of variance (ANOVA) followed by Tukey's test. Statistical significance was considered at P<0.05. The statistical analysis was done using the SPSS Statistical Software version 16 (SPSS Inc. 233 South Wacker Drive, 11th Floor Chicago, IL 60606-6412).

Compound: CCc1ccc(CCOc2ccc(CC3SC(=O)NC3=O)cc2)nc1 (stereo not drawn) [Pio, Pioglitazone]
- Mean Plasma Glucose ([1]; Day 3): 144 mg/dL
- Mean Plasma Glucose ([1]; Day 7): 149 mg/dL
- Mean Plasma Glucose ([1]; Day 14): 141 mg/dL
- Mean Plasma Glucose ([1]; Day 21): 132 mg/dL
- Mean Plasma Glucose ([1]; Day 28): 126 mg/dL
- Glycosylated Hemoglobin ([2]; Day 1): 6.66
- Glycosylated Hemoglobin ([2]; Day 7): 10.78
- Glycosylated Hemoglobin ([2]; Day 14): 9.67
- Glycosylated Hemoglobin ([2]; Day 21): 8.44
- Glycosylated Hemoglobin ([2]; Day 28): 7.96

Compound: Insulin
- OGTT Mean Plasma Glucose ([3]; 0.5 hour): 389 ± 95.77 mg/dL
- OGTT Mean Plasma Glucose ([3]; 2.0 hour): 315 ± 102.13 mg/dL
- OGTT Mean Plasma Glucose ([3]; 4.0 hour): 311 ± 217.52 mg/dL
- OGTT Mean Plasma Glucose ([3]; 8.0 hour): 233 ± 29.73 mg/dL
- Percentage Change in plasma insulin ([4]; Day 1): 0%
- Percentage Change in plasma insulin ([4]; Day 7): −42%
- Percentage Change in plasma insulin ([4]; Day 14): −39%
- Percentage Change in plasma insulin ([4]; Day 21): −37%
- Percentage Change in plasma insulin ([4]; Day 28): −34%
- Mean Plasma Glucose ([5]; 6th Week): 226 ± 12.4 mg/dL
- Mean Plasma Glucose ([5]; 10th Week): 233 ± 16.0 mg/dL
- Food Intake ([5]; Day 1): 21 ± 0.66 gm
- Mean Body Weight ([5]; Day 1): 278 ± 3.7 gm
- Mean Plasma Glucose ([5]; Day 1): 352 ± 42.4 mg/dL
- Urine Volume ([5]; Day 1): 9 ± 0.63 mL
- Water Intake ([5]; Day 1): 9 ± 0.95 mL
- Food Intake ([5]; Day 7): 23 ± 0.43 gm
- Mean Body Weight ([5]; Day 7): 277 ± 4.4 gm
- Mean Plasma Glucose ([5]; Day 7): 249 ± 5.7 mg/dL
- Urine Volume ([5]; Day 7): 16 ± 1.91 mL
- Water Intake ([5]; Day 7): 14 ± 0.85 mL
- Food Intake ([5]; Day 14): 27 ± 0.58 gm
- Mean Body Weight ([5]; Day 14): 280 ± 3.9 gm
- Mean Plasma Glucose ([5]; Day 14): 222 ± 14.1 mg/dL
- Water Intake ([5]; Day 14): 20 ± 0.86 mL
- Food Intake ([5]; Day 21): 30 ± 0.56 gm
- Mean Body Weight ([5]; Day 21): 279 ± 4.5 gm
- Mean Plasma Glucose ([5]; Day 21): 233 ± 13.3 mg/dL
- Urine Volume ([5]; Day 21): 26 ± 3.61 mL
- Water Intake ([5]; Day 21): 25 ± 2.77 mL
- Food Intake ([5]; Day 28): 34 ± 0.93 gm
- Mean Body Weight ([5]; Day 28): 279 ± 4.9 gm
- Mean Plasma Glucose ([5]; Day 28): 211 ± 8.6 mg/dL
- Urine Volume ([5]; Day 28): 26 ± 4.43 mL
- Water Intake ([5]; Day 28): 31 ± 3.08 mL
